Assays:
Mushroom Tyrosinase = target: T1, Mushroom Tyrosinase (Agaricus bisporus, UniProt C7FF04); test: Tyrosinase inhibition assay (L-Tyrosine substrate, absorbance at 492 nm); format: biochemical; conditions: EAA alone
T1 construct: purchased Sigma
Experimental: Tyrosinase acts on L-Tyrosine forming a pink colored complex, the intensity of which is measured at 492 nm. The Tyrosinase activity in the presence and absence of inhibitor is assayed spectrophotometrically at 492 nm using a Microplate reader.
Mushroom Tyrosinase enzyme is prepared by dissolving entire content in […], pH 6.5 pre-chilled enzyme buffer to get […]. Gentle shaking for five minutes aids in dissolution of enzyme. Aliquot the stock into vials of 100 μl each and keep at −80° until use for at least 2 months. Multiple freeze-thaw cycles of the enzyme must be avoided.
A stock of 2.50 mM L-Tyrosine Disodium salt (Sigma) is prepared in 1.5 mM phosphate buffer (pH 6.5) by dissolving 2.845 mg/5 ml.
Samples were dissolved in DMSO and further dilutions were carried out in buffer
The assay was performed in a 96 well clear microtitre plate. Different concentrations of the composition comprising ethyl-ascorbic acid and tetrahydrocurcuminoids were pre incubated with 10 μl of […] stock Solution of Mushroom Tyrosinase (f.c. 6 U/well) at 37° C. for 10 minutes. The reaction is initiated by adding 2.5 mM L-Tyrosine disodium and the absorbance is read immediately every minute until 15 minutes using the microplate reader at 492 nm. A test blank well was prepared for each sample without the enzyme. Enzyme reaction with vehicle alone served as a control for enzyme activity. Kojic acid was used as a positive control.
The results are expressed as IC50 values using Graphpad prism software. The percentage of inhibition of melanin is calculated as follows,
Where C-absorbance in control and T-absorbance in test sample

[1] = test system: B16F1 mouse melanoma cells; test: Melanogenesis inhibition in α-MSH stimulated B16F1 cells (melanin at 405 nm); format: cell-based; conditions: EAA alone, 72 hours
Experimental: The intracellular melanin in B16F1 mouse melanoma cells is extracted by 1N NaOH. The brown colored melanin thus extracted is estimated at 405 nm. The synthesis of melanin is inhibited in the presence of inhibitor which results in reduced absorbance at 405 nm.
MSH Stock was prepared at 1 mg/ml in distilled water. MSH at a final concentration of 1 nM was used to stimulate melanogenesis
B16F1 mouse melanoma cells were cultured for 24 hours in a 96 well microtiter plate at a seeding density of 5000 cells per well. Cells are treated with varying non cytotoxic concentrations of the sample over a period of 72 hours along with melanin stimulating hormone (∝-MSH) to induce the synthesis of melanin pigment. Untreated cells and cells without ∝-MSH addition were used as positive and negative control. The melanin produced by the cells was extracted by 1N NaOH and the absorbance was read at 405 nm in a Microplate reader. The inhibitory effect of the sample is calculated based on the degree of inhibition of melanin formation.
The results are expressed as IC50 values using Graph pad prism software. The percentage of inhibition of melanin is calculated as follows,
[formula] Where C-absorbance due to melanin in untreated cells
T-absorbance due to melanin in sample treated cells

T1 sequence (C7FF04 1-392 limits assumed): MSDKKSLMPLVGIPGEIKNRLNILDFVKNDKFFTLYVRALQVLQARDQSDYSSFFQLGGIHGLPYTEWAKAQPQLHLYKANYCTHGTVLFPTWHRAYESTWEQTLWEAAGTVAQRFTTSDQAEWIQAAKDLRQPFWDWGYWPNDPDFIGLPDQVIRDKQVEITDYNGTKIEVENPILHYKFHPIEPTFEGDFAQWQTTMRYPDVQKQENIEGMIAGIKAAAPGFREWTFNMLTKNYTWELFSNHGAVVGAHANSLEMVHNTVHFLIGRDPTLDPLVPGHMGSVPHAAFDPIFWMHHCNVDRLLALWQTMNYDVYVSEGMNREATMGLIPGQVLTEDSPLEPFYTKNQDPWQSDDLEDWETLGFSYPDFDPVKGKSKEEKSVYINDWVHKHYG

CCOC1=C(O)C(=O)O[C@@H]1[C@@H](O)CO [Ethyl-ascorbic acid (EAA), 3-O-ethyl-ascorbic acid]
% Inhibition of tyrosinase activity (Mushroom Tyrosinase; 62.5 μg/ml): Nil
% Inhibition of tyrosinase activity (Mushroom Tyrosinase; 125 μg/ml): Nil
inhibition at 250 µg/mL (Mushroom Tyrosinase; 250 μg/ml): 11.6%
inhibition at 500 µg/mL (Mushroom Tyrosinase; 500 μg/ml): 28.3%
% Inhibition of melanogenesis ([1]; 0.625 μg/ml): Nil
% Inhibition of melanogenesis ([1]; 0.625 μg/ml, listed as ethyl-ascorbic acid): did not show any melanogenesis inhibition
% Inhibition of melanogenesis ([1]; 1.25 μg/ml): Nil

Source: US10864154B2, “Skin care compositions and their applications” (SAMI LABS LIMITED, priority 2019, dated 2020)
